Reference: patent US20230219965A1 (KSQ Therapeutics, Inc., priority 2020, published 2023)
Like-named read-outs stand apart in the source and are kept apart here.

How the values were obtained:
USP1/UAF1 enzyme = USP1/UAF1 enzyme (Homo sapiens, UniProt O94782); experiment: USP1/UAF1 deubiquitination assay (ubiquitin-rhodamine 110 substrate); assay type: biochemical; conditions: read-out: USP1 IC50 (Ub-Rho)
How it was run: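 Cleavage of 150 nM ubiquitin-rhodamine 110 by 0.05 nM USP1/UAF1 was followed as fluorescence (Ex480/Em540, kinetic, 30 min) in Tris-HCl pH 7.8 buffer with EDTA, BSA, DTT and Tween-20. Compounds, top 10 μM, were preincubated with enzyme 10 min; % inhibition against no-enzyme and DMSO wells gave four-parameter IC50s.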

[1] = test system: Ub-PCNA levels in the nucleus of ES2 cells (USP1 activity); experiment: ES2 Ub-PCNA immunofluorescence (IF) assay; assay type: cell-based; conditions: ES2 cells, 3 hours, Ub-PCNA immunofluorescence, read-out: USP1 IC50 (Ub-PCNA)
How it was run: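 AC50 derived from percent Ub-PCNA-positive nuclei, positivity set by a 95% cutoff from untreated-well intensities. Readout by imaging immunofluorescence (anti-Ub-PCNA, DAPI nuclear mask) after methanol fixation. Compound exposure: 3 h at 37° C, 0.3% DMSO final, on cells plated overnight.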

[2] = ADME solubility determination in PBS at pH 2.0 and pH 7.4; assay type: physicochemical; conditions: for solubility at 24 h: phosphate buffered saline, 25 °C, thermodynamic from solid
How it was run: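 Solubility was read by LC-MS/MS on centrifuged supernatants, calibrated to a known-concentration standard and corrected for dilution. Compound, dried down from 10 mM DMSO stock, was equilibrated 24 h at 25° C with shaking in PBS at pH 2.0 or pH 7.4.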

[3] = Liver microsomal metabolic stability, rat liver microsomes (RLM); conditions: 1 μM compound, 1 mg/mL microsomes, NADPH; for half-life at 1 μM: rat, liver microsomes, t1/2 (min) in RLM
Method: Samples were prepared by adding 222.5 μL of a master solution (100 mM phosphate buffer and 1 mg/mL liver microsomes (HLM or RLM)) and 25 μL of a 10 mM NADPH solution to incubation plates, which were then warmed for 10 min. Each compound was separately dissolved in DMSO to prepare 10 mM stock solutions, which were then diluted to 100 μM with acetonitrile. A reaction was started by adding 2.5 μL of the 100 μM solution of each compound to separate incubation plates such that the final concentration of for each compound in each plate was 1 μM.
25 μL aliquots of each sample were taken at 0.5, 5, 10, 15, 20 and 30 minutes, and the reaction was stopped by adding 5 volumes of cold acetonitrile with IS (100 nM alprazolam, 200 nM caffeine and 100 nM tolbutamide). The samples were then centrifuged at 3,220 G for 30 minutes, and 100 μL of the supernatant fluid was mixed with 100 μL of ultra-pure H2O.
The samples were then analyzed by LC-MS/MS. Peak areas were determined from extracted ion chromatograms. Slope values (k) were determined by linear regression of the natural logarithm of the remaining percentage of the compound vs. incubation time curve. The in vitro half-life (in vitro t1/2) was determined from the slope value using the following equation:

[4] = Liver microsomal metabolic stability, human liver microsomes (HLM); conditions: for half-life at 1 μM: human, liver microsomes
[5] = pH 2, aqueous buffer, PBS pH 2.0, 25° C., read-out: Solubility at pH 2.0
[6] = pH 7.4, aqueous buffer, PBS pH 7.4, 25° C., read-out: Solubility at pH 7.4

USP1/UAF1 enzyme, sequence (O94782 whole entry): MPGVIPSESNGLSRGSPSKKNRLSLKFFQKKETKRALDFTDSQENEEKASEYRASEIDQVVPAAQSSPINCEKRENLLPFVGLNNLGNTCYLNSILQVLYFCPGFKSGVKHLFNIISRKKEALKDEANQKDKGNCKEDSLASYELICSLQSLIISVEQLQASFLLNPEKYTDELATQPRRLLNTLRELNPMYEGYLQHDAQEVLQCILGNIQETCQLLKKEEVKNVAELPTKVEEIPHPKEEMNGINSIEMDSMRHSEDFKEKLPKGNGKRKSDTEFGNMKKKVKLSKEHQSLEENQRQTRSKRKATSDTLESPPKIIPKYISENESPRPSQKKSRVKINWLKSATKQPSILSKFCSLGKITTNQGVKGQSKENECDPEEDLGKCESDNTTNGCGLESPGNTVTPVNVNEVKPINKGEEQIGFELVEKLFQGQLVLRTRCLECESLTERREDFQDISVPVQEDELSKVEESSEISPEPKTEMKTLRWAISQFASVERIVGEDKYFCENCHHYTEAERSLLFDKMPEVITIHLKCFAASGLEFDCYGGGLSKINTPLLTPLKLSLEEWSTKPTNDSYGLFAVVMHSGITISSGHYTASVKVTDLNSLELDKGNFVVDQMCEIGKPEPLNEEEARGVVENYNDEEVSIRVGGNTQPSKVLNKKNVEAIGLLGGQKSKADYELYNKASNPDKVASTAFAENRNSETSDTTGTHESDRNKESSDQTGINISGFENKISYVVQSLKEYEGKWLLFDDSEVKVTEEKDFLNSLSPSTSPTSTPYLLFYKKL
USP1/UAF1 enzyme, sequence (Q8TAF3 whole entry partner): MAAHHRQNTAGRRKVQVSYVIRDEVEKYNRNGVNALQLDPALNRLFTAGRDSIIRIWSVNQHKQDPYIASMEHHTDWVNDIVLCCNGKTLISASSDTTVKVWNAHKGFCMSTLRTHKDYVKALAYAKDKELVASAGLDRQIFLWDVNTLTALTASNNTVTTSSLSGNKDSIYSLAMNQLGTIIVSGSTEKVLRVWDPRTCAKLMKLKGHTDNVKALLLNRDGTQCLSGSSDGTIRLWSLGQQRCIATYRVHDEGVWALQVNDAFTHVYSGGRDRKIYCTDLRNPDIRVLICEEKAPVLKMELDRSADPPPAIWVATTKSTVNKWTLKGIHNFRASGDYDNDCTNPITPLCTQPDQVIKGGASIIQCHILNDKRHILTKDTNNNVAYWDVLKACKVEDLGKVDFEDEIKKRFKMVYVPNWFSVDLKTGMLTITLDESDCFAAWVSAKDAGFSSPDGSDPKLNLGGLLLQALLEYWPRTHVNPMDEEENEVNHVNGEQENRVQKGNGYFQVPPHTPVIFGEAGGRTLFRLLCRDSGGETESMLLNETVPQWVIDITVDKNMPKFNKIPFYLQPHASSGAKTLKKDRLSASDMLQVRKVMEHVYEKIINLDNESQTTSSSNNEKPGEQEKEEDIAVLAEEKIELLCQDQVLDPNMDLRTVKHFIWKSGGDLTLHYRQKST

Row | SMILES | IC50 (USP1/UAF1 enzyme) [nM] | IC50 ([1]; Homo sapiens, ES-2) [nM] | solubility at 24 h [2, 5] [µM] | solubility at 24 h [2, 6] [µM] | half-life at 1 μM [3] [min] | half-life at 1 μM [4] [min] | IC50 [1] [nM] | Solubility at pH 2.0 (μM) ([2]; PBS pH 2.0, 25° C., 24 hours) | Solubility at pH 7.4 (μM) ([2]; PBS pH 7.4, 25° C., 24 hours) | t1/2 (min) in RLM [3] | t1/2 (min) in HLM ([4]; human liver microsomes, 1 μM compound, 1 mg/mL microsomes, NADPH)
1 | CCn1cc(C(F)(F)F)nc1-c1ccc(C(C)N2C(=O)CCn3nc(-c4c(Cl)cnn4C(C)C)cc32)cc1 (stereo not drawn) [Example 113] | < 100 | < 100 | < 10 | < 10 | < 25 | < 25 |  |  |  |  | 
2 | Cc1cnn(C(C)C)c1-c1nn2c(c1Cl)N(Cc1ccc(-c3nc(C(F)(F)F)cn3C)cc1)CCC2 [Example 147, 3-chloro-2-(1-isopropyl-4-methyl-1H-pyrazol-5-yl)-4-(4-(1-methyl-4-(trifluoromethyl)-1H-imidazol-2-yl)benzyl)-4,5,6,7-tetrahydropyrazolo[1,5-α]pyrimidine] | < 100 | < 100 | < 10 | < 10 | < 25 | < 25 |  |  |  |  | 
3 | CCn1cc(C(F)(F)F)nc1-c1ccc(CN2C(=O)C(N(C)C)Cn3nc(-c4c(Cl)cnn4C(C)C)cc32)cc1 (stereo not drawn) [Example 235, 2-(4-chloro-1-isopropyl-1H-pyrazol-5-yl)-6-(dimethylamino)-4-(4-(1-ethyl-4-(trifluoromethyl)-1H-imidazol-2-yl)benzyl)-6,7-dihydropyrazolo[1,5-α]pyrimidin-5(4H)-one] | < 100 | 100 to 500 | ≥ 10 | < 10 | < 25 | < 25 |  |  |  |  | 
4 | CCn1cc(C(F)(F)F)nc1-c1ccc(CN2CCCn3nc(-c4c(OC)ncnc4C4CC4)cc32)cc1F [Example 64] | < 100 | < 100 | ≥ 10 | < 10 | < 25 | < 25 |  |  |  |  | 
5 | CCn1cc(C(F)(F)F)nc1-c1ccc([C@@H](C)N2C(=O)CCn3nc(-c4c(Cl)cnn4C(C)C)cc32)cn1 [Example 139] | < 100 | 100 to 500 | < 10 | < 10 | > 25 | > 25 |  |  |  |  | 
6 | Cc1cnn(C(C)C)c1-c1nc2n(n1)CCCN2Cc1ccc(-c2nc(C(F)(F)F)cn2C(C)C)cc1 [Example 222, 4-(4-(1-isopropyl-4-(trifluoromethyl)-1H-imidazol-2-yl)benzyl)-2-(1-isopropyl-4-methyl-1H-pyrazol-5-yl)-4,5,6,7-tetrahydro-[1,2,4]triazolo[1,5-a]pyrimidine] | < 100 | < 100 | ≥ 10 | < 10 | < 25 | < 25 |  |  |  |  | 
7 | CC(C)n1ncc(Cl)c1-c1cc2n(n1)CCC(=O)N2Cc1ccc(-c2cn(C)c(C(F)(F)F)n2)cc1 [Example 116] | < 100 | 100 to 500 | < 10 | < 10 | > 25 | > 25 |  |  |  |  | 
8 | COc1ncnc(C2CC2)c1-c1cc2n(n1)CCC(=O)N2[C@@H](C)c1ccc(-c2nc(C(F)(F)F)cn2C(C)C)cc1 [Example 122] | 100 to 500 | > 500 | ≥ 10 | < 10 | > 25 | > 25 |  |  |  |  | 
9 | COc1ncnc(C2CC2)c1-c1nc2n(n1)CCC(=O)N2Cc1ccc(-c2nc(C(F)(F)F)cn2C(C)CF)cc1 (stereo not drawn) [Example 195] | 100 to 500 | < 100 | ≥ 10 | ≥ 10 | > 25 | > 25 |  |  |  |  | 
10 | COc1ncnc(C2CC2)c1-c1nc2n(n1)CCC(=O)N2C(C)c1ccc(-c2nc(C(F)(F)F)cn2C(C)C)cc1 (stereo not drawn) [Example 169] | < 100 | 100 to 500 | ≥ 10 | < 10 | > 25 | > 25 |  |  |  |  | 
11 | CCn1cc(C(F)(F)F)nc1-c1ccc(CN2C(=O)C(N)Cn3nc(-c4c(Cl)cnn4C(C)C)cc32)cc1 (stereo not drawn) [Example 233, 6-amino-2-(4-chloro-1-isopropyl-1H-pyrazol-5-yl)-4-(4-(1-ethyl-4-(trifluoromethyl)-1H-imidazol-2-yl)benzyl)-6,7-dihydropyrazolo[1,5-α]pyrimidin-5(4H)-one] | < 100 |  |  |  |  |  | 100 to 500 | ++ (“++” indicates 10 μM or greater) | + (“+” indicates less than 10 μM) | ++ (“++” indicates 25 minutes greater) | ++ (“++” indicates 25 minutes greater)
12 | CCn1cc(C#N)nc1-c1ccc(NC2CCCn3nc(-c4c(Cl)cnn4C(C)C)cc32)cc1 (stereo not drawn) [Example 247, 2-(4-((2-(4-chloro-1-isopropyl-1H-pyrazol-5-yl)-4,5,6,7-tetrahydropyrazolo[1,5-a]pyridin-4-yl)amino)phenyl)-1-ethyl-1H-imidazole-4-carbonitrile] | < 100 | 100 to 500 | < 10 | < 10 | < 25 | < 25 |  |  |  |  | 
13 | CC(C)Oc1cccnc1-c1ccc(CN2C(=O)CCn3nc(-c4c(Cl)cnn4C(C)C)cc32)cc1 [Example 291] | < 100 | 100 to 500 | < 10 | < 10 | < 25 | < 25 |  |  |  |  | 
